Reference: the NIST ThermoML archive (doi:10.1016/j.fluid.2011.06.011)
“And” between values parts separate entries of the source, which are not always exact repeats. Equal values may be shown once.

Key:
[1] = Liquid; for speed of sound: Sing-around technique in a fixed-path interferometer; for mass density: Vibrating tube method
[2] = refractive index (Na D-line) (dimensionless); settings: 101.33 kPa, Liquid, Standard Abbe refractometry
[3] = refractive index (Na D-line) (dimensionless); xn = mol fraction of the nth substance listed; settings: 101 kPa, Liquid, Standard Abbe refractometry, x2 = 0
[4] = xn = mol fraction of the nth substance listed; settings: Liquid, x2 = 0; for speed of sound: Sing-around technique in a fixed-path interferometer; for mass density: Vibrating tube method

C=CC(C)(O)CCC=C(C)C (stereo not given) [3,7-dimethyl-1,6-octadien-3-ol]
[1]
Settings | mass density, 101.33 kPa [kg/m3] | mass density, 20000 kPa [kg/m3] | mass density, 25000 kPa [kg/m3] | mass density, 30000 kPa [kg/m3] | mass density, 35000 kPa [kg/m3] | mass density, 40000 kPa [kg/m3] | speed of sound, 101 kPa [m/s] | speed of sound, 101.33 kPa [m/s]
283.15 K | 869.39 | 880.8 | 883.7 | 886.1 | 888.9 | 891.4 | 1370.6 | 1370.3
298.15 K | 857 | 869.4 | 872.3 | 875.2 | 877.9 | 880.6 | 1315.1 | 1313.1
313.15 K | 844.29 | 857.6 | 860.9 | 863.9 | 866.8 | 869.7 | – | 1260.8
328.15 K | 831.31 | 846 | 849.3 | 852.6 | 855.7 | 858.8 | – | 1207.6

[2]
Settings | refractive index
283.15 K | 1.46659 and 1.4666
298.15 K | 1.45946
313.15 K | 1.45215
328.15 K | 1.44473

CCO [ethanol]
[1]
Settings | mass density, 101 kPa [kg/m3] | mass density, 101.33 kPa [kg/m3] | mass density, 20000 kPa [kg/m3] | mass density, 25000 kPa [kg/m3] | mass density, 30000 kPa [kg/m3] | mass density, 35000 kPa [kg/m3] | mass density, 40000 kPa [kg/m3] | speed of sound, 101.33 kPa [m/s]
283.15 K | 798.28 | 798.27 | 812.8 | 816.5 | 819.8 | 823 | 826.1 | 1196.2
298.15 K | 785.46 | 785.45 | 801.5 | 805.3 | 808.8 | 812.2 | 815.5 | 1146.2
313.15 K | – | 772.39 | 789.8 | 794 | 797.4 | 801 | 804.8 | 1096.7
328.15 K | – | 758.93 | 777.8 | 782.2 | 786.3 | 790 | 793.9 | 1047

[2]
Settings | refractive index
283.15 K | 1.36546
298.15 K | 1.35984
313.15 K | 1.35409
328.15 K | 1.34827

CCO [ethanol] + C=CC(C)(O)CCC=C(C)C
[3]
Settings | refractive index
283.15 K | 1.36546
298.15 K | 1.35984
313.15 K | 1.35409
328.15 K | 1.34827

[4]
Settings | mass density, 101 kPa [kg/m3] | mass density, 20000 kPa [kg/m3] | mass density, 25000 kPa [kg/m3] | mass density, 30000 kPa [kg/m3] | mass density, 35000 kPa [kg/m3] | mass density, 40000 kPa [kg/m3] | speed of sound, 101 kPa [m/s]
283.15 K | 798.28 | 812.8 | 816.5 | 819.8 | 823 | 826.1 | 1196.2
298.15 K | 785.46 | 801.5 | 805.3 | 808.8 | 812.2 | 815.5 | 1146.2
313.15 K | 772.39 | 789.8 | 794 | 797.4 | 801 | 804.8 | 1096.7
328.15 K | 758.93 | 777.8 | 782.2 | 786.3 | 790 | 793.9 | 1047
